Experimental data reported in patent US9062088B2, “CDK-inhibiting pyrrolopyrimidine carboxamide derivative or pharmaceutically acceptable salt thereof, and pharmaceutical composition containing the same as active ingredient for preventing or treating hepatocellular carcinoma” (SNU R&DB Foundation, priority 2010, dated 2015).

Legend:
SNU-354 cells [1] = assay: FACS analysis of sub G1 ratio (Experimental Example 1-6-3); type: cell-based, human
Experimental: The cells were collected and washed with cold PBS, followed by reaction in 500 μl of cold 70% ethanol at 4° C. for overnight to fix the cells. The cells were washed with 500 μl of PBS three times, followed by reaction with 500 μl of PBS containing 50 μg/mL propidium iodide (P1) and 50 μl of 1 mg/mL RNAse A at room temperature for 30 minutes in the darkness. Fluorescence of the P1 stained cell was measured by using caliber flow cytometer and cell quest program (Becton Dickinson Immunocytometry Systems, CA, USA). Sub G1 ratio changes of HCC SNU-354 cells induced by the compounds of Examples 1 and 2 were measured by FACS analysis. The results are shown in FIG. 19, FIG. 20, Table 9 and Table 10.

[2] = tested on: caspase-3 activity in SNU-354 cells; assay: Measurement of caspase-3 activity (Experimental Example 4); type: cell-based, human; design: unit not given here
Experimental: SNU-354 cells treated with the compounds of Example 1˜Example 6 were lysed with lysis buffer (0.5% triton X-100, 20 mM Tris-HCl (pH 7.5), 2 mM magnesium chloride, 1 mM DTT, 1 mM EGTA, 50 mM β-glycerophosphate, 25 mM sodium fluoride, 1 mM Na3VO4, 2 μg/mL leupeptin, 2 μg/mL pepstatin A, 100 μg/mL phenylmethylsulfonyl fluoride, 1 μg/mL antipain). The protease analysis buffer necessary for the reaction (20 mM HEPES (pH 7.5), 10% glycerol, 2 mM DTT) was mixed with 20 μM Ac-DEVD-AMC (BD Biosciences, CA, USA) and cell lysates, followed by reaction at 37° C. for 1 hour. Upon completion of the reaction, caspase-3 activity was measured at 380 nm of excitation and 460 nm of emission with spectrofluorometer (TECAN, Switzerland) and the results are shown in FIG. 25 and Table 12.

Cdk7 = assay: Western blotting of Cdk7 activity (phospho RNA Pol II Ser 5); type: cell-based, human; conditions: 0 nM = 100
Experimental: (§1) After treating the compound of Example 2 to SNU-354 cells, cell pellet was lysed with lysis buffer (0.5% triton X-100, 20 mM Tris-HCl (pH 7.5), 2 mM magnesium chloride, 1 mM DTT, 1 mM EGTA, 50 mM β-glycerophosphate, 25 mM sodium fluoride, 1 mM Na3VO4, 2 μg/mL leupeptin, 2 μg/mL pepstatin A, 100 μg/mL phenylmethylsulfonyl fluoride, and 1 μg/mL antipain) at 4° C. for 1 hour, followed by quantification of protein. A proper amount of protein was electrophoresed on SDS-PAGE gel and then transferred onto polyvinylidene difluoride membrane (Millipore Co., Bedford, Mass.). The membrane was reacted in inhibiting solution (PBS, 5% skim milk, 0.1% tween-20) at room temperature for 1˜2 hours. The membrane was reacted with the primary antibody (goat anti-phospho-Rb, rabbit anti-nucleolin) diluted in the inhibiting solution (1:1000). Then, the membrane was washed with PBST, followed by reaction with the proper secondary antibody (horseradish peroxidase (HRP) conjugated) at room temperature for 1 hour.
Experiment was performed by the same manner as described in step 2 of Experimental Example 1 except that rabbit anti-phospho RNA Pol II (Ser 5) and rabbit anti-phospho RNA Pol II (Ser 2) (from Bethyl, TX, USA) were used as primary antibodies. The results are shown FIG. 9˜FIG. 12, and Table 4 and Table 5.

SNU-354 cells [3] = assay: 3H-thymidine incorporation assay; type: cell-based, human; conditions: 18˜24 hours
Experimental: SNU-354 cells were distributed in a 6-well plate at the density of 5×10^4 cells/well, followed by culture in FBS-free medium for 24 hours. 24 hours later, the medium was replaced with the fresh one supplemented with FBS, the compounds of Examples 1 and 2 at different concentrations and 1 μCi/mL [^3H]dT (GE Healthcare, UK). 18˜24 hours later, the cells were washed with cold PBS and then fixed with cold 5% trichloroacetic acid. DNA was lysed in […] sodium hydroxide at 37° C. for 1 hour. Then, [^3H]dT incorporated during intracellular DNA synthesis was measured by LSC (liquid scintillation counting). Intracellular DNA synthesis measured above was used as index for the evaluation of cell viability.

SNU-354 cells [4] = assay: Western blotting of PARP cleavage; type: cell-based, human; conditions: FIG. 17
Experimental: as §1
Experiment was performed by the same manner as described in step 2 of Experimental Example 2 except that rabbit anti-PARP was used as the primary antibody and the results are shown in FIG. 17.

Cdk9/cyclin T1 = target: T1, Cdk9/cyclin T1 (Homo sapiens, UniProt P50750); assay: In vitro kinase assay of Cdk9, RNA Pol II-CTD-GST substrate; type: biochemical; conditions: 0 nM = 100
T1 construct: purchased Upstate
Experimental: To kinase assay buffer were added RNA Pol II-CTD-GST protein (Jena Bioscience, Germany) as a substrate, Cdk9/cyclin T1 or Cdk7/cyclin H/MAT1 recombinant protein (Upstate) as an enzyme, 2.5 μCi [γ-32P]ATP, and 100 μM MgAc/ATP. The total reaction volume was adjusted to 50 μl. Kinase assay reaction was induced at 30° C. for 20 minutes. Upon completion of the reaction, electrophoresis was performed on 8% SDS-polyacrylamide gel. The activities of Cdk7 and Cdk9 over the concentrations of the compounds of Example 1 and Example 2 were confirmed by autoradiography and the results are shown in FIG. 5˜FIG. 8 and Table 3.
The intensity of bands was analyzed by densitometry (GS-800, Bio-Rad).

T1 sequence (P50750 whole entry): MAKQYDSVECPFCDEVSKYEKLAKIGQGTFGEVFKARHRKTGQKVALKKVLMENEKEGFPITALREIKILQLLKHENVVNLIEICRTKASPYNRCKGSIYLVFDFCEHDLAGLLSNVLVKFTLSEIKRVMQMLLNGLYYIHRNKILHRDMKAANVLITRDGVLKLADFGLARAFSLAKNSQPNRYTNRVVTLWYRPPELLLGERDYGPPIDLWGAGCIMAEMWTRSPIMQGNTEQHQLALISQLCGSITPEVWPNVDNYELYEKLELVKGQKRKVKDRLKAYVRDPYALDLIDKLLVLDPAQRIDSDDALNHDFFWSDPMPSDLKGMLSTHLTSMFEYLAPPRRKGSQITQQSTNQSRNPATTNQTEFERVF
T1 sequence (O60563 whole entry partner): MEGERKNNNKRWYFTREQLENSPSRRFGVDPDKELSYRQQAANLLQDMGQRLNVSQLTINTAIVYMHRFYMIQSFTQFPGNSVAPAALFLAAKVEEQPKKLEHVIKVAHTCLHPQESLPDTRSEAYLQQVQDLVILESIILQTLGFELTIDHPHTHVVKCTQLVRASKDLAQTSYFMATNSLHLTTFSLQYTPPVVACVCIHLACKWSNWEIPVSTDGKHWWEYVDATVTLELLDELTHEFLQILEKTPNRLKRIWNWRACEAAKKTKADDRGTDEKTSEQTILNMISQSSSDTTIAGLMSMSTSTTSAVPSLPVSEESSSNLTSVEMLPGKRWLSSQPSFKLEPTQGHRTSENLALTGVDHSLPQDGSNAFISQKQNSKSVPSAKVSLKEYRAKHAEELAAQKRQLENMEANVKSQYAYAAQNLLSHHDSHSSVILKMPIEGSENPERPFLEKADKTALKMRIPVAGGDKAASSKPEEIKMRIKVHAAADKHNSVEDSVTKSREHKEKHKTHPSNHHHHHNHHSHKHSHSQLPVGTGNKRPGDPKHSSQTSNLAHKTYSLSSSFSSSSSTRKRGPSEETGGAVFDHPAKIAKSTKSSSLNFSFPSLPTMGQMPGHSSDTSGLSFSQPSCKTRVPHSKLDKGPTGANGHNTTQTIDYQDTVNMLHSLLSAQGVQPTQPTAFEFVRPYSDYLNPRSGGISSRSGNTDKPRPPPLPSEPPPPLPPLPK

CC(C)C(=O)OC[C@@H]1O[C@H](n2cnc(N)c3c(C(N)=O)c(Br)nc2-3)[C@H](O)[C@H]1O [Example 2, ((2S,3R,4R,5S)-5-(4-amino-6-bromo-5-carbamoyl-1H-pyrrolo[2,3-d]pyrimidin-1-yl)-3,4-dihydroxy-tetrahydrofuran-2-yl)methyl isobutyrate]
sub G1 ratio (%) (SNU-354 cells [1]; 0.1 μM, 24 hours, 0 μM = 3.0): 3.8%
sub G1 ratio (%) (SNU-354 cells [1]; 0.5 μM, 24 hours, 0 μM = 3.0): 39.6%
sub G1 ratio (%) (SNU-354 cells [1]; 1 μM, 24 hours, 0 μM = 3.0): 52.0%
sub G1 ratio (%) (SNU-354 cells [1]; 5 μM, 24 hours, 0 μM = 3.0): 69.8%
sub G1 ratio (%) (SNU-354 cells [1]; 10 μM, 24 hours, 0 μM = 3.0): 72.6%
sub G1 ratio (%) (SNU-354 cells [1]; 50 μM, 24 hours, 0 μM = 3.0): 73.1%
sub G1 ratio (%) (SNU-354 cells [1]; 50 μM, time 6 h, 0 h = 10.3): 51.6%
sub G1 ratio (%) (SNU-354 cells [1]; 50 μM, time 12 h, 0 h = 10.3): 67.6%
sub G1 ratio (%) (SNU-354 cells [1]; 50 μM, time 18 h, 0 h = 10.3): 72.3%
sub G1 ratio (%) (SNU-354 cells [1]; 50 μM, time 24 h, 0 h = 10.3): 81.2%
concentration at which sub G1 ratio was rapidly increased (SNU-354 cells [1]; 24 hours): 0.5 µM
Caspase-3 activity ([2]; 5 μM): 9.7
Caspase-3 activity ([2]; 10 μM): 11.0
Cdk7 activity (Cdk7; 0.1 nM): 88.4%
Cdk7 activity (Cdk7; 0.5 nM): 44.0%
Cdk7 activity (Cdk7; 1 nM): 12.7%
Cdk7 activity (Cdk7; 5 nM): 3.3%
Cdk7 activity (Cdk7; 10 nM): 1.6%
Cdk7 activity (Cdk7; 50 nM): 0.6%
^3H-thymidine incorporation (%) (SNU-354 cells [3]; 5.0 μM): 50.7%
^3H-thymidine incorporation (%) (SNU-354 cells [3]; 10.0 μM): 20.4%
^3H-thymidine incorporation (%) (SNU-354 cells [3]; 50.0 μM): 8%
PARP cleavage, time from the treatment after which it was caused (SNU-354 cells [4]): 6 h
Cdk9 activity (Cdk9/cyclin T1; 10 nM): 95.4%
Cdk9 activity (Cdk9/cyclin T1; 100 nM): 40.5%
Cdk9 activity (Cdk9/cyclin T1; 1000 nM): 3.3%

NC(=O)c1c(Br)nc2n([C@H]3O[C@@H](CO)[C@H](O)[C@H]3O)cnc(N)c1-2 [Example 1, 4-amino-6-bromo-1-((2S,3R,4R,5S)-3,4-dihydroxy-5-(hydroxymethyl)-tetrahydrofuran-2-yl)-1H-pyrrolo[2,3-d]pyrimidine-5-carboxamide]
sub G1 ratio (%) (SNU-354 cells [1]; 0.1 μM, 24 hours, 0 μM = 3.0): 2.7%
sub G1 ratio (%) (SNU-354 cells [1]; 0.5 μM, 24 hours, 0 μM = 3.0): 3.2%
sub G1 ratio (%) (SNU-354 cells [1]; 1 μM, 24 hours, 0 μM = 3.0): 3.5%
sub G1 ratio (%) (SNU-354 cells [1]; 5 μM, 24 hours, 0 μM = 3.0): 28.1%
sub G1 ratio (%) (SNU-354 cells [1]; 10 μM, 24 hours, 0 μM = 3.0): 64.2%
sub G1 ratio (%) (SNU-354 cells [1]; 50 μM, 24 hours, 0 μM = 3.0): 71.1%
sub G1 ratio (%) (SNU-354 cells [1]; 50 μM, time 6 h, 0 h = 10.3): 29.1%
sub G1 ratio (%) (SNU-354 cells [1]; 50 μM, time 12 h, 0 h = 10.3): 51.8%
sub G1 ratio (%) (SNU-354 cells [1]; 50 μM, time 18 h, 0 h = 10.3): 71.7%
sub G1 ratio (%) (SNU-354 cells [1]; 50 μM, time 24 h, 0 h = 10.3): 78.1%
concentration at which sub G1 ratio was rapidly increased (SNU-354 cells [1]; 24 hours): 5 µM
Caspase-3 activity ([2]; 5 μM): 8.4
Caspase-3 activity ([2]; 10 μM): 8.1
Cdk7 activity (Cdk7; 0.1 nM): 90.1%
Cdk7 activity (Cdk7; 0.5 nM): 76.3%
Cdk7 activity (Cdk7; 1 nM): 37.6%
Cdk7 activity (Cdk7; 5 nM): 3.0%
Cdk7 activity (Cdk7; 10 nM): 1.7%
Cdk7 activity (Cdk7; 50 nM): 0.3%
^3H-thymidine incorporation (%) (SNU-354 cells [3]; 5.0 μM): 84.0%
^3H-thymidine incorporation (%) (SNU-354 cells [3]; 10.0 μM): 35.2%
^3H-thymidine incorporation (%) (SNU-354 cells [3]; 50.0 μM): 15.8%
PARP cleavage, time from the treatment after which it was caused (SNU-354 cells [4]): 12 h
Cdk9 activity (Cdk9/cyclin T1; 10 nM): 15.8%
Cdk9 activity (Cdk9/cyclin T1; 100 nM): 1.0%
Cdk9 activity (Cdk9/cyclin T1; 1000 nM): 0.1%
